Series [1] concerns human peripheral blood mononuclear cells (PBMCs). Description: T cell activation in CSFE labeled human PBMCs fed drug-killed MDA-MB-231 cells, with or without pembrolizumab. Format: cell-based. The settings on record: PBMCs fed drug-exposed MDA-MB-231 cells, 48 hours. From the text:
Induction of the innate immune response following exposure to cancer cells undergoing ICD sets up secondary T cell activation, which can be enhanced by concomitant pembrolizumab treatment.

Series [2] deals with murine tumor cells that stably express human TF. The experiment in a line: Immunization of Balb/c mice with drug-killed human TF positive murine tumor cells, then tumor challenge (syngeneic model). Format: in vivo. The settings on record: mice immunized with drug-killed human TF positive tumor cells. As for the experimental part:
Mouse tumor cells are transfected with plasmid constructs encoding human tissue factor (TF) and sgRNA-guided Cas9 nuclease (sgRNA/Cas9) to generate a murine cell line that expresses the human TF. Fluorescence activated cell sorting (FACS) yields a clonal population of murine tumor cells that stably express human TF, these cells are then treated with 1 μg to 5 μg per ml of tisotumab vedotin or 100 nM of MMAE for 4 days. In order to prepare dying cells for immunization, treated murine tumor cells are overlaid atop Histopaque, and centrifuged at 2000 g for 30 minutes. Dead and dying cells are pelleted underneath the Histopaque layer, and viability assessed by trypan blue exclusion. A sample with approximately <20% live cells as measured by trypan blue exclusion is obtained. Flash-frozen tumor cells are prepared by submerging the cells in liquid nitrogen for 10 seconds, followed by immersion in 37° C. water until completely thawed. The liquid nitrogen freeze-thaw process is repeated 5 times. Dead and dying human TF positive tumor cells are resuspended in phosphate buffered saline (PBS) and 2×10^6 cells are injected into the peritoneum of immune-competent Balb/c mice. Seven days later, mice receive a second immunization with dead and dying cells prepared in the same manner.
Fourteen days after initial immunization with the dead and dying human TF positive tumor cells, mice are subcutaneously implanted with 5×10^6 wild-type tumor cells and monitored for tumor growth. […] As these effects occur in the absence of any administered therapeutic agent, the administration of cells killed by tisotumab vedotin or MMAE is sufficient to generate long-lasting protective immune memory against subsequent tumor cell challenge. Protective immune memory is amplified by treating these mice with tisotumab vedotin in combination with an antibody that binds to murine PD-1.

The subject of series [3] is relapsed, recurrent, and/or metastatic cervical cancer. The settings on record: cited from earlier work.
Series [4] has as its system HPAFII (pancreatic carcinoma) and MDA-MB-231 (breast carcinoma) cells. Description: Western blot of ER stress pathways in HPAFII and MDA-MB-231 cells. In kind it is cell-based. As for the experimental part:
Induction of cell death and release of ICD danger signals occurs concomitant with initiation of an ER stress response. Two Tissue Factor positive cell lines, HPAFII (pancreatic carcinoma) and MDA-MB-231 (breast cell carcinoma) were exposed to tisotumab vedotin ADC, an Isotype-MMAE ADC (H00-MMAE, IgG1 MMAE), or free MMAE for 18 hours and induction of ER stress monitored by western blot analysis. Phosphorylation of inositol-requiring transmembrane kinase/endonuclease 1 (IRE1) was detected after treatment with tisotumab vedotin ADC or MMAE free drug (FIG. 6). […] The ability for auristatins to prime the immune system to recognize tumor antigens opens the door for a myriad of combinatorial therapeutic options.
A general note: A western blot detects proteins with antibodies after separation by electrophoresis.

In the next series the test system is MDA-MB-231 xenograft. Description: MDA-MB-231 xenograft model in humanized NSG mice. In kind it is in vivo. As for the experimental part:
The in vivo anti-tumor efficacy of tisotumab vedotin in combination with an anti-PD-1 monoclonal antibody was evaluated in NOD.Cg-PrkdC^scid Il2rg^tm1Wj1/SzJ (NSG) immunodeficient mice (The Jackson Laboratory, Stock No. 005557), humanized by engraftment with human CD34^+ hematopoietic stem cells (Jackson Laboratories, Sacramento). Mice were subcutaneously inoculated with 5×10^6 MDA-MB-231 cells (breast adenocarcinoma; American Tissue Culture Collection (ATCC), cat. no. HTB-26), in 100 μL phosphate-buffered saline (PBS). Before inoculation, cells were cultured in DMEM with high glucose and HEPES without L-glutamine (Lonza, cat. no. BE12-709F), 10% (v/v) donor bovine serum with iron New Zealand Origin (Thermo Fisher Scientific, DBSI, cat. no. 10371-029), 2 mM L-glutamine (Lonza, cat. no. BE17-605E), 1 mM Na-pyruvate (Lonza, cat. no. BE13-115E), MEM non-essential amino acids (Life Technologies, cat. no. 11140) and 1% (v/v) penicillin/streptomycin (Lonza, cat. no. DE17-603E), in CellSTACK culture chambers (Corning, cat. no. 3313).
Tumor size was determined by caliper measurement at least two times a week and tumor volume was calculated as 0.52×length×width^2. When tumors reached the size of 100 mm^3 mice were randomized in 7 groups (8 mice per treatment group) based on mouse cohort and tumor size (Table 1). Mice were treated with tisotumab vedotin alone (1 mg/kg or 0.5 mg/kg), intravenously, weekly for a maximum of five treatments, or in combination with an anti-PD-1 antibody (i.e., pembrolizumab, KEYTRUDA®, 50 mg concentrate, Merck & Co., Inc., Kenilworth, N.J. USA) or with anti-PD-1 antibody alone. The first dose of the anti-PD-1 antibody (i.e., pembrolizumab) was 10 mg/kg, followed by 5 mg/kg every five days for a maximum of six treatments. Mice in control groups were administered 1 mg/kg of IgG1 isotype control antibody or IgG1 isotype control antibody conjugated to MMAE intravenously, weekly for a maximum of five treatments (Table 1). The IgG1 isotype control antibody is the b12 antibody which is known to bind to HIV-1 gp120. […]
(Xenograft models place foreign cells or tissue in a host animal.)

Series [5] relates to Tissue Factor positive cell lines. The experiment in a line: Cell death and ATP/HMGB1 release from Tissue Factor positive cell lines. In kind it is cell-based. The settings on record: for activity across multiple Tissue Factor positive cell lines: release of ICD related molecules. The text has this: Auristatin ADC payloads disrupt the microtubule networks resulting in altered ER localization and function, which ultimately results in ER stress.

The test system of series [6] is human peripheral blood mononuclear cells (PBMCs). Description: Monocyte/macrophage activation in human PBMCs fed drug-killed MDA-MB-231 cells. In kind it is cell-based. The text has this:
FIGS. 7A and 7B is a series of graphs in which Tissue Factor positive MDA-MB-231 cells killed with various agents were fed to human peripheral blood mononuclear cells (PBMCs) and immune activation assessed by increased expression of activations markers on innate CD14+ monocyte/macrophages and induction of chemokine and cytokine production.
Immunogenic cell death, as mediated by MMAE, is regulated cell death that activates adaptive immune responses against antigens from dead and dying tumor cells, and allows for the generation of robust innate immune cell activation and subsequent cytotoxic T cell responses targeted towards specific tumor cell antigens. […] Furthermore, these monocyte/macrophages conditioned by ICD-killed cells promote activation of T cells, as evidenced by production of signature inflammatory cytokines associated with cytotoxic T cell responses.

Setting [7] is: subjects who received tisotumab vedotin.
[8] abbreviates: HPAFII and MDA-MB-231 cells, 18 hours.

“Also recorded” adds a separate entry of the source.

Take tisotumab: in series [1], the “T cell proliferation (CSFE dilution)” value is given as “did not elicit these responses”, the “production of IFNγ” value was “did not elicit these responses” and the “production of IL12p70” value is on record as “did not elicit these responses”.
Consider “tisotumab vedotin: antibody-drug conjugate comprising an antibody that binds to tissue factor (TF), a protease-cleavable linker, and the microtubule disrupting agent MMAE”, for which, in series [2], the “survival after challenge with wild-type tumor cells” value is given as “increased survival” and the “tumor growth after challenge with wild-type tumor cells” value is “delayed tumor growth”. In series [1], the “T cell proliferation (CSFE dilution)” value is “drove T cell proliferation”, the “production of IFNγ” value was “increased; also recorded: production of T cell specific cytokines” and the “production of IL12p70” value is on record as “increased; also recorded: production of T cell specific cytokines”. Further, in series [3] (2.0 mg/kg tisotumab vedotin), the efficacy entry was “robust efficacy” and the safety profile result was “manageable safety profile”. Besides, the “grade of epistaxis cases” value in series [3] (nearly all of the cases) is listed as “grade 1”. Besides, in series [3] (setting [7]), the “grade of the majority of reported peripheral neuropathy cases” value was “grade 1-2”, the “peripheral neuropathy as cause of permanent discontinuation” value is given as “leading cause of permanently discontinuation” and the “subjects with peripheral neuropathy” value is “approximately 35%”. Also, the “AEs of grade 1-2 conjunctivitis” value in series [3] (tisotumab vedotin alone) is “frequently reported”. For the same substance, in series [3] (tisotumab vedotin), the “clinically relevant perturbations in aPTT or PT” value is “have not been observed” and the “epistaxis (bleeding AE) frequency” value is given as “most common reported AE”. In series [4] (setting [8]), the “activation of JNK (phosphorylation)” value is “increased phosphorylation”, the “activation of PERK pathway (ATF4 cleavage)” value is “upregulation of ATF4 cleavage” and the “phosphorylation of IRE1” value is reported as “detected”. In addition, the “activation of ER stress pathways (phosphorylation of IRE and JNK, cleavage of ATF4)” value in series [4] (HPAFII or MDA-MB-231 cells, 16 hours) is recorded as “trigger multiple ER stress pathways”. Moreover, the “tumor burden as assessed by tumor volume” value with MDA-MB-231 xenograft (tisotumab vedotin 0.5 mg/kg IV weekly) is listed as “efficiently reduced tumor burden”. The “tumor burden as assessed by tumor volume” value in the series on MDA-MB-231 xenograft (tisotumab vedotin 1.0 mg/kg IV weekly) is reported as “efficiently reduced tumor burden”. Besides, in series [5] (Tissue Factor positive cells), the ATP secretion/release result is “drove robust A) ATP secretion; also recorded: release the ICD related molecules”, the HMGB1 release result is recorded as “HMGB1 release; also recorded: release the ICD related molecules” and the cell death result is recorded as “undergo cell death”. Further, in series [5], the “activity across multiple Tissue Factor positive cell lines” value is recorded as “occurs across multiple Tissue Factor positive cell lines”. Also, the “activity across multiple Tissue Factor positive cell lines” value in series [5] (listed as Tisotumab vedotin) was “active on multiple Tissue Factor positive cell lines”. The “monocyte/macrophage activation by CD86 expression” value in series [6] (CD14+ monocyte/macrophages, flow cytometry, PBMCs fed killed MDA-MB-231 cells, compared to IgG1-MMAE ADC or tisotumab alone) is “drove monocyte/macrophage activations”. Moreover, the “release of innate chemokines” value in series [6] (PBMCs fed killed MDA-MB-231 cells, compared to IgG1-MMAE ADC or tisotumab alone) was “induced release of innate chemokines including MIP10”. Further, the “chemotactic and inflammatory mediators from monocyte/macrophages” value in series [6] (after uptake of killed Tissue Factor positive cells) was “elicit strong chemotactic and inflammatory mediators”.

Source of the values: patent US20230027495A1, “METHODS OF TREATING CANCER WITH A COMBINATION OF AN ANTI-PD-1 ANTIBODY AND AN ANTI-TISSUE FACTOR ANTIBODY-DRUG CONJUGATE” (Genmab A/S, priority 2019, published 2023).
